Molecules are shown by their SMILES.

The assay relates to gamma-secretase. As to the kind of experiment: Gamma-secretase activity in membranes of 293 cells expressing C99 (SPC99-Ion), Aβ 40 / Aβ 42 by ECL immunoassay. Type of assay: biochemical. As to conditions: gamma-secretase membrane assay; single values listed after 'within the range of about 1 nM to about 25 nM, i.e.'. The protocol: Gamma-secretase activity was determined as described by Zhang et al. (Biochemistry, 40 (16), 5049-5055, 2001), which is herein incorporated by reference. Activity is expressed either as a percent inhibition or as the concentration of compound producing 50% inhibition of enzyme activity.
Reagents. Antibodies W02, G2-10, and G2-11 were obtained from Dr. Konrad Beyreuther (University of Heidelberg, Heidelberg, Germany). W02 recognizes residues 5-8 of Aβ peptide, while G2-10 and G2-11 recognize the specific C-terminal structure of Aβ 40 and Aβ42, respectively. Biotin-4G8 was purchased from Senetec (St. Louis, Mo.). All tissue culture reagents used in this work were from Life Technologies, Inc., unless otherwise specified. Pepstatin A was purchased from Roche Molecular Biochemicals; DFK167 was from Enzyme Systems Products (Livermore, Calif.).
cDNA Constructs, Tissue Culture, and Cell Line Construction. The construct SPC99-Ion, which contains the first 18 residues and the C-terminal 99 amino acids of APP carrying the London mutation, has been described (Zhang, L., Song, L., and Parker, E. (1999) J. Biol. Chem. 274, 8966-8972). Upon insertion into the membrane, the 17 amino acid signal peptide is processed, leaving an additional leucine at the N-terminus of Aβ. SPC99-Ion was cloned into the pcDNA4/TO vector (Invitrogen) and transfected into 293 cells stably transfected with pcDNA6/TR, which is provided in the T-REx system (Invitrogen). The transfected cells were selected in Dulbecco's modified Eagle's media (DMEM) supplemented with 10% fetal bovine serum, 100 units/mL penicillin, 100 µg/mL streptomycin, 250 µg/mL zeocin, and 5 µg/mL blasticidin (Invitrogen). Colonies were screened for Aβ production by inducing C99 expression with […] tetracycline for 16-20 h and analyzing conditioned media with a sandwich immunoassay (see below). One of the clones, designated as pTRE.15, was used in these studies.
Membrane Preparation. C99 expression in cells was induced with […] tetracycline for 20 h. The cells were pretreated with […] 12-myristate 13-acetate (PMA) and […] brefeldin A (BFA) for 5-6 h at 37° C. before harvesting. The cells were washed 3 times with cold phosphate-buffered saline (PBS) and harvested in buffer A containing 20 mM Hepes (pH 7.5), 250 mM sucrose, 50 mM KCl, 2 mM EDTA, 2 mM EGTA, and Complete protease inhibitor tablets (Roche Molecular Biochemicals). The cell pellets were flash-frozen in liquid nitrogen and stored at −70 C before use.
To make membranes, the cells were resuspended in buffer A and lysed in a nitrogen bomb at 600 psi. The cell lysate was centrifuged at 1500 g for 10 min to remove nuclei and large cell debris. The supernatant was centrifuged at 100000 g for 1 h. The membrane pellet was resuspended in buffer A plus 0.5 M NaCl, and the membranes were collected by centrifugation at 200000 g for 1 h. The salt-washed membrane pellet was washed again in buffer A and centrifuged at 100000 g for 1 h. The final membrane pellet was resuspended in a small volume of buffer A using a Teflon-glass homogenizer. The protein concentration was determined, and membrane aliquots were flash-frozen in liquid nitrogen and stored at −70° C.
γ-Secretase Reaction and AβAnalysis. To measure γ-secretase activity, membranes were incubated at 37° C. for 1 h in 50 μL of buffer containing 20 mM Hepes (pH 7.0) and 2 mM EDTA. At the end of the incubation, Aβ 40 and Aβ 42 were measured using an electrochemiluminescence (ECL)-based immunoassay. Aβ 40 was identified with antibody pairs TAG-G2-10 and biotin-W02, while Aβ 42 was identified with TAG-G2-11 and biotin-4G8. The ECL signal was measured using an ECL-M8 instrument (IGEN International, Inc.) according to the manufacturer's instructions. The data presented were the means of the duplicate or triplicate measurements in each experiment. The characteristics of γ-secretase activity described were confirmed using more than five independent membrane preparations.
In turn, `CN(C)CC(=O)N1C2CCC1CN(C(=O)OC1([C@H]3COC[C@@H](C4CC4)N3S(=O)(=O)c3ccc(Cl)cc3)CC1)C2` [Example 59] registered an IC50 of 8.9 nM.

In turn, `O=C(OC1([C@H]2COC[C@@H](CC3CC3)N2S(=O)(=O)c2ccc(Cl)cc2)CC1)N1CC2CC1CN2CCO` (stereo partly shown) [Example 98] displayed an IC50 of 3.6 nM.

For `C[C@H]1OC[C@H](C2(OC(=O)N3CC4CCC(C3)N4CCO)CC2)N(S(=O)(=O)c2ccc(Cl)cc2)[C@@H]1C1CC1` [Example 75], half-maximal inhibition (IC50) was put at 0.9 nM.

Molecule `CCC[C@@H]1COC[C@H](C2(OC(=O)N3CC4CCC(C3)N4CCO)CC2)N1S(=O)(=O)c1ccc(Cl)cc1` [Example 15] showed an IC50 of 3.6 nM.

`O=C(C(O)C1([C@H]2COC[C@@H](C3CC3)N2S(=O)(=O)c2ccc(Cl)cc2)CC1)N1CC2CCC(C1)N2` (stereo partly drawn) [Example 146, alpha-[1-[4-[(4-chlorophenyl)sulfonyl]-5(r)-cyclopropyl-3(s)-morpholinyl]cyclopropyl]-beta-oxo-3,8-diazabicyclo[3.2.1]octane-3-ethanol] showed an IC50 of 10.1 nM.

In turn, `O=C(OC[C@H]1COC[C@@H](C2CC2)N1S(=O)(=O)c1ccc(Cl)cc1)N1CCC(N2CCCCC2)CC1` [Example 30] had an IC50 of 11.1 nM.

With `C[C@@H]1OC[C@H](C2(OC(=O)N3CC[C@@H](O)C3)CC2)N(S(=O)(=O)c2ccc(Cl)cc2)[C@@H]1C1CC1` [Example 69], the IC50 came to 5.2 nM. Compared with the last molecule, the IC50 is about 2.1-fold lower.

With `CC(C)(CO)N1CCN(C(=O)OC2(C3COCC(CC4CC4)N3S(=O)(=O)c3ccc(Cl)cc3)CC2)CC1` (stereo not shown) [Example 94, 4-(2-Hydroxy-1,1-dimethyl-ethyl)-piperazine-1-carboxylic acid 1-[4-(4-chloro-benzenesulfonyl)-5-cyclopropylmethyl-morpholin-3-yl]-cyclopropyl ester], the IC50 was 2.1 nM.

With `CC(C)[C@@H]1COC[C@H](C2(OC(=O)N3CCN(C(C)(C)CO)CC3)CC2)N1S(=O)(=O)c1ccc(Cl)cc1` [Example 78], the IC50 was found to be 3.9 nM. This IC50 lies about 1.9-fold higher than the previous one.

For the molecule `CCCC1(O)CCN(C(=O)OC2([C@H]3COC[C@@H](C4CC4)N3S(=O)(=O)c3ccc(Cl)cc3)CC2)C1` (stereo partly shown) [Example 36], inhibition was half-maximal at 13.3 nM (IC50).

In turn, `O=C(OC1([C@H]2COC[C@@H](CC3CC3)N2S(=O)(=O)c2cc(F)cc(F)c2)CC1)N1CC2CCC(C1)N2` [Example 135] displayed a concentration for half-maximal inhibition (IC50) of 4.2 nM.

`O=C(OC1([C@H]2COC[C@@H](C3CC3)N2S(=O)(=O)c2ccc(Cl)cc2)CC1)N1CC2CCC(C1)N2CCO` [Example 43] showed an IC50 of 7.9 nM. This IC50 lies about 1.9-fold higher than the previous one.

Molecule `CN1CC2CCC(C1)N2C(=O)OC1([C@H]2COC[C@@H](C3CC3)N2S(=O)(=O)c2ccc(Cl)cc2)CC1` [Example 51] displayed an IC50 of 6.2 nM.

On to `O=C(OC[C@H]1COC[C@@H](c2cc(F)cc(F)c2)N1S(=O)(=O)c1ccc(Cl)cc1)N1CCC(N2CCCCC2)CC1` [Example 2], for which the IC50 was found to be 6.8 nM.

In turn, `CC(C)(CO)N1CCN(C(=O)OC2(C3COCC(C4CC4)N3S(=O)(=O)c3ccc(Cl)cc3)CC2)CC1` (stereo not shown) [Example 35, 4-(2-Hydroxy-1,1-dimethyl-ethyl)-piperazine-1-carboxylic acid 1-[4-(4-chloro-benzenesulfonyl)-5-cyclopropyl-morpholin-3-yl]-cyclopropyl ester] yielded an IC50 of 9.5 nM.

Consider `O=C(OC1([C@H]2COC[C@@H](CC3CC3)N2S(=O)(=O)c2ccc(Cl)cc2)CC1)N1CC2CCC(C1)N2CCO` [Example 99], for which the IC50 turned out to be 0.9 nM.

Regarding `CN1CCCN(C(=O)OC2([C@H]3COC[C@@H](CC4CC4)N3S(=O)(=O)c3ccc(Cl)cc3)CC2)CC1` [Example 122], the midpoint of inhibition, the IC50, lay at 4.2 nM.

`CC(C)(CO)N1CCN(C(=O)OC2(C3COCC(c4cc(F)cc(F)c4)N3S(=O)(=O)c3ccc(Cl)cc3)CC2)CC1` (stereo not shown) [Example 16, 4-(2-Hydroxy-1,1-dimethyl-ethyl)-piperazine-1-carboxylic acid 1-[4-(4-chloro-benzenesulfonyl)-5-(3,5-difluoro-phenyl)-morpholin-3-yl]-cyclopropyl ester] registered an IC50 of 1.4 nM. Compared with the last molecule, the IC50 is about 3-fold lower.

With `CN1CCN(C(=O)OC2([C@H]3COC[C@@H](CC4CC4)N3S(=O)(=O)c3ccc(Cl)cc3)CC2)CC1=O` [Example 110], the IC50 was determined as 5.7 nM.

Turning to `O=C(O)CC1CCN(C(=O)OC2([C@H]3COC[C@@H](C4CC4)N3S(=O)(=O)c3ccc(Cl)cc3)CC2)CC1` [Example 47], inhibition was half-maximal at 24.5 nM (IC50).

In the case of `C[C@H]1N(S(=O)(=O)c2ccc(Cl)cc2)[C@@H](C2(OC(=O)N3CCC(C(N)=O)CC3)CC2)COC1(C)C` [Example 88], inhibition was half-maximal at 6.7 nM (IC50).

Molecule `O=C(CC1([C@H]2COC[C@@H](C3CC3)N2S(=O)(=O)c2ccc(Cl)cc2)CC1)N1C2CCC1CC(N1CCCCC1)C2` (single isomer, unassigned) [Example 142] showed an IC50 of 12.4 nM.

(Values after US7998958B2, “Substituted N-arylsulfonylheterocyclic amines as gamma-secretase inhibitors” (Schering Corporation, priority 2004, dated 2011).)
